Reference: ChEMBL document CHEMBL4145563, “Poecillastrin H, a Chondropsin-Type Macrolide with a Conjugated Pentaene Moiety, from a Characella sp. Marine Sponge” (J Nat Prod, 2018)
Active and inactive are the calls of the source. The calls are words filed in the database; no cut-off is given here.

Key:
3Y1 cell line [1] = test: Induction of morphological changes in rat 3Y1 cells assessed as elongation of cells; format: functional, cell-based
3Y1 cell line [2] = test: Cytotoxicity against rat 3Y1 cells after 72 hrs by MTT assay; format: functional, cell-based; settings: 3Y1, 72 h

Compound | Activity (3Y1 cell line [1]) | IC50 (3Y1 cell line [2]) [nM]
CO/C1=C\C(C)=C\[C@@H](C)[C@@H](O)[C@@H](C)C/C(C)=C/C=C/[C@H](OC)[C@@H]([C@@H](C)[C@@H](O)[C@H](C)[C@@]2(O)C[C@@H](O)[C@H](C)[C@@H](C(C)C)O2)OC1=O | Active | 
C/C1=C\CC(O)C(C)C(C(NC(=O)C(C)C(O)CCC(C)C(O)/C(C)=C/C(C)(C)C(O)C(CC(C)C)NC(=O)/C=C/C(C)(C)C(=O)C(C)C(O)C(C)C)C(C)O)OC(=O)[C@H](O)[C@H](C(=O)O)NC(=O)/C=C/C=C/C=C/C=C/C=C/CC2CC(C)CC(CC(O)C(C)C(O)/C(C)=C/C(C)C1O)O2 (stereo partly drawn) | Active | 4.1
